The source of these data is patent US20050272737A1, “Combined treatment with irinotecan and an epidermal growth factor receptor kinase inhibitor” (priority 2004, published 2005).

The structures appear in SMILES notation. Like-named read-outs stand apart in the source and are kept apart here.

The conditions of series [1]: cited from earlier work.
Series [2] concerns LoVo colorectal xenograft. As to the kind of experiment: Anti-tumor efficacy in LoVo human colorectal xenograft in nude mice (study 525; also experiment 540). The format is in vivo, female athymic nu/nu mice. How it is done:
(§1) In this study, the drugs were combined at their respective maximum tolerated dose (MTD) and also combined together at sub-optimal doses. All doses included in the combination groups were also included in the study as monotherapy arms. The attempt was to achieve maximum efficacy/regression without increased toxicity.
(§2) The health of all animals was determined daily by gross observation of experimental animals and by the analyses of blood samples of sentinel animals that were housed on the shared shelf racks. All animals were allowed to acclimate and recover from any shipping related stress for one week prior to experimental manipulation. […] Cages, bedding and water bottles were autoclaved before use and were changed weekly. […] All in vivo experiments were performed in accordance with protocols approved by the Roche Animal Care and Use Committee (RACUC). The Roche animal care facility is fully accredited by the American Association for the Accreditation of Lab Animal Care (AAALAC).
LoVo cells were grown in F-12K+20% FBS (not heat inactivated) and harvested. 5×10^6 cells/0.2 ml/mouse in PBS (Phosphate Buffered Saline) were implanted subcutaneously in the right flank on Jul.
(§3) Formulated compound was made up in one batch for the entire 3 week study.
(§4) An aliquot of the stock vial solutions was taken for each dose group representing the drug needed for that group for the entire study duration and diluted out further with sterile saline, to provide a solution that renders a 0.2 ml dosing volume for each individual animal.
For study […], animals were randomized according to tumor volume on day 17 post tumor implantation so that all groups had similar starting mean tumor volumes of 100-150 mm^3.
[…] Treatment ended on Aug. […] No end of study drug exposure analysis was performed on this study.
(§5) Tumor measurements and mouse weights were taken two-three times per week for LoVo and HCT116. All animals were individually followed throughout the experiment.
(§6) Efficacy data was graphically represented as the mean tumor volume+standard error of the mean (SEM).
(§7) Tumor volume (in cubic millimeters) was calculated using the ellipsoid formula: (D×(d2))/2 • where ‘D’ represents the large diameter of the tumor, and ‘d’ represents the small diameter.
(§8) In some cases, tumor regression and/or percent change in tumor volume was calculated using the formula: ((T−T0)/T0)×100 • where ‘T’ represents mean tumor volume of the treated group at a particular day and ‘T0’ represents mean tumor volume of the same treated group at initiation of treatment.
(§9) Statistical analysis was determined by the rank sum test and One Way Anova and a post-hoc Bonferroni t-test (SigmaStat, version 2.0, Jandel Scientific, San Francisco, Calif.).
(In general: A xenograft is tissue or cells of one species grown in another, often human tumour cells in immunodeficient mice.)

For series [3], the system named is HCT116 colorectal xenograft. The experiment in a line: Anti-tumor efficacy in HCT116 human colorectal xenograft in nude mice (study 531). The format is in vivo, female athymic nu/nu mice. As to conditions: for classification of the HCT116 tumor line towards the agent: therapeutic doses: Tarceva 100 mg/kg qd, Iressa 150 mg/kg. The protocol:
as §1, §2
HCT-116 cells were grown in McCoy's 5A Modified Medium +10% FBS and harvested. 3×10^6 cells/0.2 ml/mouse in PBS (Phosphate Buffered Saline) were implanted subcutaneously in the right flank on Jul.
as §3, §4
(§10) Tarceva™ was administered using a 1 cc syringe and 18-gauge gavage needles (0.2 ml/animal). […] All groups were treated q4d for 3 weeks (total 6 injections). Treatment ended on Aug. […] No end of study of drug exposure analysis was performed on this study.
as §5, §6, §7, §8, §9

The conditions of series [4]: study 531; for toxicity and unscheduled deaths: single agent groups and low dose combination (25/15 mg/kg). The protocol:
as §2, §10
A full necropsy was performed on five mice per treatment from all remaining groups, Whole blood was also collected for hematology and clinical chemistry. Tumors were removed and fixed in zinc formalin and subsequently embedded in paraffin. Immunohistochemistry can be performed on these sections to assess apoptosis via TUNEL and proliferative index via Ki67. Necrosis can also be assessed on H&E stained sections.
as §5
Weight loss was graphically represented as percent change in mean group body weight, using the formula: ((W−W0)/W0)×100 • where ‘W’ represents mean body weight of the treated group at a particular day, and ‘W0’ represents mean body weight of the same treated group at initiation of treatment.

The nature of a further series: in vivo. How it is done: The dose of 60 mg/kg was selected as the rational maximum therapeutic dose based on investigator experience with this agent.
Series [5] is described as follows: Toxicity (body weight, deaths, clinical signs, necropsy) in LoVo study 525. As to conditions: Tarceva 100 mg/kg monotherapy. The format is in vivo, female nude mice. How it is done:
Female nude mice (10/group), obtained from Charles River Laboratories (Wilmington, Mass.) at an age of 4-6 weeks, and were used when they were ˜10-12 weeks old and weighed ˜23-25 grams.
For efficacy study 525, treatment began on Jul. […] Treatment ended on Aug. 19, 2002 (Day 38 post-tumor implant). No end of study drug exposure analysis was performed on this study.
All animals were individually followed throughout the experiment.

Series [6] has as its system LoVo colorectal xenograft. The experiment in a line: Anti-tumor efficacy in LoVo human colorectal xenograft in nude mice (study 525; also experiment 540). The format is in vivo, female athymic nu/nu mice. The source holds these as a separate data set.
Where [7] appears, read: Tarceva 25 mg/kg qd monotherapy, study 525, day 38.

With `O=c1[nH]cc(F)c(=O)[nH]1` [5-fluorouracil], the response rate entry in series [1] (single-agent treatment, advanced colorectal cancer) is reported as “about 10%”.
For the molecule `CCc1c2c(nc3ccc(OC(=O)N4CCC(N5CCCCC5)CC4)cc13)-c1cc3c(c(=O)n1C2)COC(=O)[C@]3(O)CC` [CPT-11], the “Tumor growth inhibition (TGI)” value is on record as 93% in series [2] (CPT-11 15 mg/kg q4d iv monotherapy, study 525); over 100% in series [2] (CPT-11 60 mg/kg q4d iv monotherapy, study 525, day 38); 73% in series [3] (CPT-11 15 mg/kg q4d iv monotherapy, study 531); over 100% in series [3] (CPT-11 60 mg/kg q4d iv monotherapy, study 531, day 35). For the same molecule, the tumors partially regressed in series [2] (CPT-11 60 mg/kg q4d iv monotherapy, study 525) is on record as 90%; in series [3] (CPT-11 60 mg/kg q4d iv monotherapy, study 531), 70%. For the same molecule, the “toxicity and unscheduled deaths” value in series [4] is given as “No toxicity or unscheduled deaths”. For the same molecule, in the series “in vivo” (female, mouse, in vivo, iv), the MTD at 3 weeks amounted to 66 mg/kg.
For `C#Cc1cccc(Nc2ncnc3cc(OCCOC)c(OCCOC)cc23)c1` [Tarceva™, [6,7-bis(2-methoxyethoxy)-4-quinazolin-4-yl]-(3-ethynylphenyl) amine], the “Tumor growth inhibition (TGI)” value in series [2] (Tarceva 100 mg/kg, experiment 540) is recorded as 98%; in series [6] (setting [7]), 79%; in series [6] (Tarceva 100 mg/kg qd oral monotherapy, study 525, day 38 post tumor implant) it was over 100%. The tumors partially regressed in series [2] (Tarceva 100 mg/kg, experiments 525 and 540) is on record as 40-60%. Besides, the “mice showing partial regressions (PR)” value in series [2] (erlotinib 100 mg/kg, fraction of mice) is on record as 6/10. Moreover, the “single agent tumor efficacy / tumor growth inhibition” value in series [3] (Tarceva 25 mg/kg qd monotherapy, study 531, day 35) is “not seen”; in series [3] (Tarceva 25 mg/kg qd monotherapy, study 531, day 35, listed as erlotinib) it was “did not render significant tumor growth inhibition”; in series [3] (Tarceva 100 mg/kg qd monotherapy, study 531, day 35 post tumor implant), “not seen”; in series [3] (Tarceva 100 mg/kg qd monotherapy, study 531, day 35 post tumor implant, listed as erlotinib), “did not render significant tumor growth inhibition”. The “classification of the HCT116 tumor line towards the agent” value in series [3] is reported as “refractory”. The skin finding result in series [5] and in series [4] (Tarceva 100 mg/kg monotherapy) was “classic reddening of the skin” throughout. Further, the “toxicity and unscheduled deaths” value in series [4] was “No toxicity or unscheduled deaths”. Also, the tolerability result in “in vivo” (Tarceva 150 mg/kg once a day in CMC/Tween for 3 weeks, previous efficacy studies) was “tolerated well”; in “in vivo” (Tarceva 200 mg/kg qd, CMC/Tween, MTD study), “toxicity”. Also, the MTD at 14 days in “in vivo” (female, mouse, in vivo) was 100 mg/kg. For the same molecule, the tumor regression entry in series [6] (Tarceva 25 mg/kg qd monotherapy, study 525) is listed as “no regression”. Further, the “% T/C” value in series [6] (setting [7]) was 21%; in series [6] (Tarceva 100 mg/kg qd oral monotherapy, study 525, day 38), −2%. Further, the Tumor growth inhibition in series [6] (Tarceva 25 mg/kg qd, experiments 525 and 540) is listed as 53-79%. In addition, the “tumors with partial regression” value in series [6] (Tarceva 100 mg/kg qd oral monotherapy, study 525) is 60%.
As for `COc1cc2ncnc(Nc3ccc(F)c(Cl)c3)c2cc1OCCCN1CCOCC1` [Iressa™], the “classification of the HCT116 tumor line towards the agent” value in series [3] is “refractory”. In series [4], the “toxicity and unscheduled deaths” value was “No toxicity or unscheduled deaths”.
Take `O=C(O)C(=O)O.[NH-][C@@H]1CCCC[C@H]1[NH-].[Pt+2]` [oxaliplatin]: the response rate in series [1] (combined with 5-FU and leucovorin, first-line treatment for colorectal cancer) is reported as 25-40%.
